Laboratory results taken from PubChem BioAssay AID256 (DTP/NCI, 2004).
Values joined by “and” are separate entries in the source; they are usually repeats but may differ in a detail not shown here. Equal values may be shown once. Toxic doses and inconclusive results are not listed.

Test system: CD2F1 mice, L1210 leukemia ip, survival T/C
Assay: NCI In Vivo Anticancer Drug Screen. Data for tumor model L1210 Leukemia (intraperitoneal) in CD2F1 (CDF1) mice
Settings: higher = longer survival
Method in brief: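 In this screen, transplantable tumors were grown in mice given either the compound or its vehicle. Results were expressed as the treated measurement relative to the control measurement.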

[1] = endpoint: mean survival time, dose: 100.0 mg/kg/injection, schedule: Q04DX003 (ip), vehicle: saline
[2] = endpoint: mean survival time, dose: 200.0 mg/kg/injection, schedule: Q04DX003 (ip), vehicle: saline
[3] = endpoint: mean survival time, dose: 400.0 mg/kg/injection, schedule: Q04DX003 (ip), vehicle: saline
[4] = endpoint: mean survival time, dose: 100.0 mg/kg/injection, schedule: Q01DX001 (ip), vehicle: saline with Tween-80
[5] = endpoint: mean survival time, dose: 200.0 mg/kg/injection, schedule: Q01DX001 (ip), vehicle: saline with Tween-80
[6] = endpoint: mean survival time, dose: 400.0 mg/kg/injection, schedule: Q01DX001 (ip), vehicle: saline with Tween-80
[7] = endpoint: mean survival time, dose: 100.0 mg/kg/injection, schedule: Q01DX009 (ip), vehicle: saline with Tween-80

Q: Which results are given for `O=CC(O)C(Cl)C(Cl)C(O)CCl` (stereo not drawn)?
A: T/C [1]: 115 % of control; T/C [2]: 100 % of control; T/C [3]: 98 % of control

Q: Which T/C (endpoint: mean survival time, dose: 100.0 mg/kg/injection, schedule: Q04DX002 (ip), vehicle: saline with Tween-80) does the source give for `O=C(COc1ccc(Cl)cc1Cl)OCCI` here?
A: 97 % of control

Q: And the T/C (endpoint: mean survival time, dose: 200.0 mg/kg/injection, schedule: Q04DX002 (ip), vehicle: saline with Tween-80)?
A: 102 % of control

Q: `C=C[CH2][Sn]([Br])([c]1ccccc1)[c]1ccccc1` was tested. Which T/C (endpoint: mean survival time, dose: 6.25 mg/kg/injection, schedule: Q01DX009 (ip), vehicle: saline with Tween-80) did it give?
A: 94 % of control

Q: And the T/C (endpoint: mean survival time, dose: 25.0 mg/kg/injection, schedule: Q04DX002 (ip), vehicle: saline with Tween-80)?
A: 89 % of control

Q: What does the source list for `Cc1ccc(O)c(C)n1`?
A: T/C [1]: 104 % of control; T/C [2]: 98 % of control; T/C [3]: 97 % of control

Q: How did the T/C (endpoint: median survival time, dose: 1.5 mg/kg/injection, schedule: Q01DX001 (ip), vehicle: water) turn out when `COC12C(COC(N)=O)C3=C(C(=O)C(C)=C(N4CCN(C)CC4)C3=O)N1CC1NC12` (stereo not drawn) was run?
A: 155 % of control

Q: What about the T/C (endpoint: median survival time, dose: 3.0 mg/kg/injection, schedule: Q01DX001 (ip), vehicle: water) of the same compound?
A: 124 % of control

Q: What about the T/C (endpoint: median survival time, dose: 6.0 mg/kg/injection, schedule: Q01DX001 (ip), vehicle: water) of the same compound?
A: 87 % of control

Q: And the T/C (endpoint: median survival time, dose: 375.0 micrograms/kg/injection, schedule: Q01DX001 (ip), vehicle: water)?
A: 102 % of control and 106 % of control

Q: What about the T/C (endpoint: median survival time, dose: 750.0 micrograms/kg/injection, schedule: Q01DX001 (ip), vehicle: water) of the same compound?
A: 90 % of control and 102 % of control

Q: And the T/C (endpoint: median survival time, dose: 1500.0 micrograms/kg/injection, schedule: Q01DX001 (ip), vehicle: water)?
A: 101 % of control and 106 % of control

Q: What about the T/C (endpoint: median survival time, dose: 3000.0 micrograms/kg/injection, schedule: Q01DX001 (ip), vehicle: water) of the same compound?
A: 94 % of control and 106 % of control

Q: What about the T/C (endpoint: median survival time, dose: 6000.0 micrograms/kg/injection, schedule: Q01DX001 (ip), vehicle: water) of the same compound?
A: 102 % of control and 105 % of control

Q: Which T/C (endpoint: mean survival time, dose: 12.5 mg/kg/injection, schedule: Q03HX024 (ip), vehicle: saline) does the source give for `CC(=O)OCC1OC(n2ncc(=O)[nH]c2=O)C(OC(C)=O)C1OC(C)=O` (stereo not drawn) here?
A: 112 % of control

Q: And the T/C (endpoint: mean survival time, dose: 25.0 mg/kg/injection, schedule: Q03HX024 (ip), vehicle: saline)?
A: 116 % of control

Q: And the T/C (endpoint: mean survival time, dose: 50.0 mg/kg/injection, schedule: Q03HX024 (ip), vehicle: saline)?
A: 106 % of control

Q: What about the T/C (endpoint: mean survival time, dose: 100.0 mg/kg/injection, schedule: Q01DX001 (ip), vehicle: saline) of the same compound?
A: 106 % of control

Q: What about the T/C (endpoint: mean survival time, dose: 200.0 mg/kg/injection, schedule: Q01DX001 (ip), vehicle: saline) of the same compound?
A: 103 % of control

Q: What about the T/C (endpoint: mean survival time, dose: 400.0 mg/kg/injection, schedule: Q01DX001 (ip), vehicle: saline) of the same compound?
A: 106 % of control

Q: And the T/C (endpoint: mean survival time, dose: 400.0 mg/kg/injection, schedule: Q01DX009 (ip), vehicle: saline)?
A: 108 % of control

Q: What about the T/C (endpoint: mean survival time, dose: 800.0 mg/kg/injection, schedule: Q01DX001 (ip), vehicle: saline) of the same compound?
A: 117 % of control

Q: What about the T/C (endpoint: mean survival time, dose: 800.0 mg/kg/injection, schedule: Q01DX009 (ip), vehicle: saline) of the same compound?
A: 93 % of control

Q: `CCCCCCCCCCCCCCSc1ccc(Br)cc1` was tested. Which T/C [4] did it give?
A: 110 % of control

Q: And the T/C [5]?
A: 101 % of control

Q: What about the T/C [6] of the same compound?
A: 93 % of control

Q: For `CCN(CC)N1C(=O)[N+](CC)(CC)N=C1[O-]`, which T/C [1] is on record?
A: 102 % of control

Q: And the T/C [2]?
A: 95 % of control

Q: What about the T/C [3] of the same compound?
A: 101 % of control

Q: For `O=C1c2cc(Cl)ccc2OCC1Cl` (stereo not drawn), which T/C [4] is on record?
A: 87 % of control

Q: What about the T/C [5] of the same compound?
A: 91 % of control

Q: And the T/C [6]?
A: 93 % of control

Q: With `CC(=O)Nc1sc([N+](=O)[O-])cc1[N+](=O)[O-]` as the compound, how does the T/C (endpoint: mean survival time, dose: 25.0 mg/kg/injection, schedule: Q04DX003 (ip), vehicle: saline with Tween-80) read?
A: 101 % of control

Q: And the T/C (endpoint: mean survival time, dose: 50.0 mg/kg/injection, schedule: Q04DX003 (ip), vehicle: saline with Tween-80)?
A: 108 % of control

Q: What about the T/C (endpoint: mean survival time, dose: 100.0 mg/kg/injection, schedule: Q04DX003 (ip), vehicle: saline with Tween-80) of the same compound?
A: 91 % of control and 101 % of control

Q: How did the T/C (endpoint: mean survival time, dose: 100.0 mg/kg/injection, schedule: Q01DX001 (ip), vehicle: Klucel (hydroxypropylcellulose) (HPC)) turn out when `O=c1cc(-c2ccc(S(=O)(=O)F)cc2)[nH]c2ccc([N+](=O)[O-])cc12` was run?
A: 108 % of control

Q: What about the T/C (endpoint: mean survival time, dose: 200.0 mg/kg/injection, schedule: Q01DX001 (ip), vehicle: Klucel (hydroxypropylcellulose) (HPC)) of the same compound?
A: 101 % of control

Q: And the T/C (endpoint: mean survival time, dose: 400.0 mg/kg/injection, schedule: Q01DX001 (ip), vehicle: Klucel (hydroxypropylcellulose) (HPC))?
A: 112 % of control

Q: With `CC1/C=C/C=C/CC/C=C/C=C/C=C/C=C/C(OC2OC(C)C(O)C(N)C2O)CC2OC(CC(O)C(O)CCC(O)CC(O)CC(O)CC(=O)OC(C)C(C)C1O)CC(O)C2C(=O)O` (stereo not drawn) as the compound, how does the T/C (endpoint: mean survival time, dose: 9.5 mg/kg/injection, schedule: Q01DX009 (ip), vehicle: saline sonified) read?
A: 95 % of control

Q: What about the T/C (endpoint: mean survival time, dose: 9.5 mg/kg/injection, schedule: Q04DX003 (ip), vehicle: saline sonified) of the same compound?
A: 98 % of control

Q: And the T/C (endpoint: mean survival time, dose: 19.0 mg/kg/injection, schedule: Q01DX009 (ip), vehicle: saline sonified)?
A: 93 % of control

Q: What about the T/C (endpoint: mean survival time, dose: 19.0 mg/kg/injection, schedule: Q04DX003 (ip), vehicle: saline sonified) of the same compound?
A: 92 % of control

Q: What about the T/C (endpoint: mean survival time, dose: 38.0 mg/kg/injection, schedule: Q01DX009 (ip), vehicle: saline sonified) of the same compound?
A: 87 % of control

Q: What about the T/C (endpoint: mean survival time, dose: 38.0 mg/kg/injection, schedule: Q04DX003 (ip), vehicle: saline sonified) of the same compound?
A: 100 % of control

Q: What about the T/C (endpoint: median survival time, dose: 6.25 mg/kg/injection, schedule: Q01DX009 (ip), vehicle: saline with Tween-80) of the same compound?
A: 100 % of control

Q: And the T/C (endpoint: median survival time, dose: 12.5 mg/kg/injection, schedule: Q01DX009 (ip), vehicle: saline with Tween-80)?
A: 100 % of control

Q: What about the T/C (endpoint: median survival time, dose: 25.0 mg/kg/injection, schedule: Q01DX009 (ip), vehicle: saline with Tween-80) of the same compound?
A: 102 % of control

Q: And the T/C (endpoint: median survival time, dose: 50.0 mg/kg/injection, schedule: Q01DX009 (ip), vehicle: saline with Tween-80)?
A: 101 % of control

Q: And the T/C (endpoint: median survival time, dose: 100.0 mg/kg/injection, schedule: Q01DX009 (ip), vehicle: saline with Tween-80)?
A: 100 % of control

Q: What does the source list for `CC(=O)n1cc(CS)c(=O)[nH]c1=O`?
A: T/C (endpoint: mean survival time, dose: 5.0 mg/kg/injection, schedule: Q01DX001 (ip), vehicle: saline): 105 % of control; T/C (endpoint: mean survival time, dose: 10.0 mg/kg/injection, schedule: Q01DX001 (ip), vehicle: saline): 98 % of control; T/C (endpoint: mean survival time, dose: 20.0 mg/kg/injection, schedule: Q01DX001 (ip), vehicle: saline): 105 % of control; T/C (endpoint: mean survival time, dose: 40.0 mg/kg/injection, schedule: Q01DX001 (ip), vehicle: saline): 105 % of control; T/C (endpoint: mean survival time, dose: 80.0 mg/kg/injection, schedule: Q01DX001 (ip), vehicle: saline): 105 % of control

Q: Which results are given for `CN1CC(C(=O)NC(C)(C)C)CC(c2ccccc2)C1` (stereo not drawn)?
A: T/C (endpoint: mean survival time, dose: 6.25 mg/kg/injection, schedule: Q01DX001 (ip), vehicle: saline with Tween-80): 102 % of control; T/C (endpoint: mean survival time, dose: 12.5 mg/kg/injection, schedule: Q01DX001 (ip), vehicle: saline with Tween-80): 106 % of control; T/C (endpoint: mean survival time, dose: 25.0 mg/kg/injection, schedule: Q01DX001 (ip), vehicle: saline with Tween-80): 100 % of control

Q: For `C[n+]1cccc(NC(=O)c2ccc(NC(=O)c3ccc(C(=O)Nc4ccc(NC(=N)N)cc4)cc3)cc2)c1`, which T/C (endpoint: mean survival time, dose: 1.3 mg/kg/injection, schedule: Q01DX009 (ip), vehicle: saline) is on record?
A: 173 % of control

Q: And the T/C (endpoint: mean survival time, dose: 2.0 mg/kg/injection, schedule: Q01DX009 (ip), vehicle: saline)?
A: 307 % of control

Q: What about the T/C (endpoint: mean survival time, dose: 3.0 mg/kg/injection, schedule: Q01DX009 (ip), vehicle: saline) of the same compound?
A: 259 % of control

Q: What about the T/C (endpoint: mean survival time, dose: 8.0 mg/kg/injection, schedule: Q01DX009 (ip), vehicle: saline) of the same compound?
A: 115 % of control

Q: What about the T/C (endpoint: mean survival time, dose: 12.0 mg/kg/injection, schedule: Q01DX009 (ip), vehicle: saline) of the same compound?
A: 112 % of control

Q: What about the T/C (endpoint: mean survival time, dose: 18.0 mg/kg/injection, schedule: Q01DX009 (ip), vehicle: saline) of the same compound?
A: 97 % of control

Q: For `COc1ccc(CN(CCO)CCCCCCN(CCO)Cc2ccc(OC)cc2)cc1`, which T/C (endpoint: mean survival time, dose: 25.0 mg/kg/injection, schedule: Q01DX009 (ip), vehicle: saline with Tween-80) is on record?
A: 93 % of control

Q: What about the T/C (endpoint: mean survival time, dose: 50.0 mg/kg/injection, schedule: Q01DX009 (ip), vehicle: saline with Tween-80) of the same compound?
A: 96 % of control

Q: And the T/C [7]?
A: 98 % of control

Q: What about the T/C (endpoint: median survival time, dose: 50.0 mg/kg/injection, schedule: Q04DX002 (ip), vehicle: saline) of the same compound?
A: 100 % of control

Q: And the T/C (endpoint: median survival time, dose: 100.0 mg/kg/injection, schedule: Q04DX002 (ip), vehicle: saline)?
A: 100 % of control

Q: For `COc1cc(/C=C2\SC(=O)NC2=O)ccc1O`, which T/C [7] is on record?
A: 105 % of control
